We go through one compound from patent US20220133728A1, “METHODS FOR TREATING VITILIGO LESIONS HAVING IMPROVED EFFICACY” (ARCUTIS BIOTHERAPEUTICS, INC., priority 2020, published 2022).

Test [1] has as its system vitiligo lesions. The test can be described thus: Proof of Concept, double blind, vehicle-controlled study of ARQ-252 cream 0.3% BID with NB-UVB home phototherapy in non-segmental facial vitiligo. It is filed as in vivo, human. The note with it: applied topically in combination with narrowband UVB phototherapy, compared to vehicle cream plus narrowband UVB. From the text:
A Proof of Concept, parallel group, double blind, vehicle-controlled study of the safety and efficacy of a 0.3% SHR0302 topical cream of Example 1 (ARQ-252 cream 0.3%) was designed for subjects with non-segmental facial vitiligo. Subjects with non-segmental facial vitiligo applied either ARQ-252 0.3% cream BID or vehicle cream BID to all affected areas of vitiligo on the face, neck, hands, forearms, and elbows. Product was applied to all affected, depigmented areas and, where anatomically possible, treatment extended approximately 3 cm from the border all around. […]
The two patients were assessed by measures including Facial Vitiligo Area and Severity Index (F-VASI), Facial Body Surface Area (F-BSA), Facial/Neck BSA (F/N-BSA), BSA (Hands, Forearms, Elbows), Facial/Neck VASI (F/N-VASI), VASI of the forearms and elbow (FOREARM-VASI) and VASI of the hands only (HAND-VASI). […] VASI is a quantitative clinical tool that is based on a composite estimate of the overall area of vitiligo patches at baseline and the degree of macular repigmentation within these patches over time. […] BSA affected with vitiligo will be assessed as a percentage of the total BSA, and will be determined to the nearest 0.01% using, as guides, the palm plus 5 digits, with fingers tucked together and thumb tucked to the side (handprint), as 1% BSA and the thumb as 0.1% BSA. […]

Test [2] deals with JAK 1 (Homo sapiens, UniProt P23458). The note with it: cited from earlier work.
Sequence of JAK 1 (P23458 whole entry, species assumed): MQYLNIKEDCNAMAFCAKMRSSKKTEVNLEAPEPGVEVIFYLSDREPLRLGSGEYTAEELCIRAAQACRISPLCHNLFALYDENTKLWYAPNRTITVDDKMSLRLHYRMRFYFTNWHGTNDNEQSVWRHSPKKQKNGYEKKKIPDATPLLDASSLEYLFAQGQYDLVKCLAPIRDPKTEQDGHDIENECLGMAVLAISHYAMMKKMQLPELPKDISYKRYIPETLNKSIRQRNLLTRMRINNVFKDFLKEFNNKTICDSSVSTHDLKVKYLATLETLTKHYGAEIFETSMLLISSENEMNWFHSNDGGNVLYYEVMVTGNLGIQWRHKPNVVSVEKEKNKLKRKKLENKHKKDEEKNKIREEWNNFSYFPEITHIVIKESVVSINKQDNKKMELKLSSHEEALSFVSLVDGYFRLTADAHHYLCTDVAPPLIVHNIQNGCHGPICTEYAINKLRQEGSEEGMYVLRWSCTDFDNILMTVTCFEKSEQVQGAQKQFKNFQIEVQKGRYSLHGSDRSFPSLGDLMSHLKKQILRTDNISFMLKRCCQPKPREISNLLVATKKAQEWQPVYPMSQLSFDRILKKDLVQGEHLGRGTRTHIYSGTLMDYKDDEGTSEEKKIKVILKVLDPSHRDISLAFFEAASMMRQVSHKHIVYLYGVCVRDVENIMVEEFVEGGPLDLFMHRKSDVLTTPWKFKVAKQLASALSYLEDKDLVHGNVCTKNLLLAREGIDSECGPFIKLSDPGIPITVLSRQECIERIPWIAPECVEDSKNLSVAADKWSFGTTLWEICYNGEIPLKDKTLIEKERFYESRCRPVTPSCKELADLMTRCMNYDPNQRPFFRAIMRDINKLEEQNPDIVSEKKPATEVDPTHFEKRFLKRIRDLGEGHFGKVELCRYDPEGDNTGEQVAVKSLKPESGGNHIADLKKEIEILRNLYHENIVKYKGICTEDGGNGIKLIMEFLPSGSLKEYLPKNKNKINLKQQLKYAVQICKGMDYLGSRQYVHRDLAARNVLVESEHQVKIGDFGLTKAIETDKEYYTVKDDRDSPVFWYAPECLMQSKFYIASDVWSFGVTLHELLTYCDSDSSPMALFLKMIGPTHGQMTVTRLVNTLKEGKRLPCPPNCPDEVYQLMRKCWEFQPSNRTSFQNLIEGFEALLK

`COc1nsc(NC(=O)N2C[C@H]3C[C@H](N(C)c4ncnc5[nH]ccc45)C[C@H]3C2)n1` [SHR0302, (3aR,5S,6aS)—N-(3-methoxyl-1,2,4-thiadiazol-5-yl)-5-(methyl(7H-pyrrolo[2,3-d]pyrimidin-4-yl)amino)hexahydrocyclopenta[c]pyrrole-2(1H)-carboxamide]: in test [1], the “repigmentation of vitiligo lesions” value was “dramatically repigmented”. Also, in test [2], the “inhibition of JAK 1” value was “potent” and the “selectivity for JAK1 over JAK2” value is listed as “high selectively for JAK1 over JAK2”.
